Where two headings read alike, the source gives them in different places. Each block holds one compound with its values, some of them ahead of it.
What was measured:
Format in all cases: physicochemical
[1] = Solubility in water (excess of compound in 4 ml demi water); conditions: for Solubility: Table E5.2, water; for Solubility (%): Table E8
Procedure: Solubility is preferably solubility in aqueous solution, more preferably solubility in water, most preferably solubility in demineralised water. A skilled person knows how to assess such solubility.
Solubility in water was determined by preparing mixtures of an excess of compound dispersed in 4 ml demi water using a vortex at maximum speed for 1 min. […] 1 ml of the mixture was concentrated in vacuo to yield a solid. The mass of the solid was determined in mg to calculate the solubility in percentage by dividing by ten.

[2] = Foaming abilities, 1% compound solutions shaken by hand; set-up: key to FOAM: −: no foam formation; +: low foam formation; ++: moderate foam formation; +++: strong foam formation
Procedure: Foaming abilities were evaluated at room temperature by shaking 1% compound solutions (2 ml) of pH 3, 7, and 12 by hand for 10 s. The pH of each solution was assessed with a pH meter at room temperature. […] The foam heights at the initial time were compared to one another after which the foaming abilities were classified according to no foam formation (−), low foam formation (+), moderate foam formation (++), and strong foam formation (+++).

[3] = Surface tension measurements, Wilhelmy plate (surface tension, CMC)
Procedure: Surface tension measurements were performed with a Biolin Scientific Sigma701 automatic tension meter equipped with a Wilhelmy plate made of platinum (±0.5 mN/m). […] The number of experimental points is related to the compound's/surfactant's solubility and available quantity. All compound/surfactant solutions were allowed to stand 12 h before being measured. The platinum plate was thoroughly cleaned with demi water and flame-dried before each measurement. The CMC of each compound/surfactant was determined at the minimum of a breakpoint of a conventional plot of surface tension versus compound/surfactant concentration. DCMC was obtained by acquiring the surface tension at the CMC. The pC20 value was determined by taking the minus log of the concentration compound/surfactant at a surface tension of 52 mN/m.

[4] = Foaming power and stability, Ultra-Turrax, 0.4% aq. surfactant; conditions: for Foamability (mL) after (min) 1 / Foamability (mL) after (min) 5 / Foamability (mL) after (min) 10: Table E5.2; for Foamability (mL) after (min) 1: foam volume after 1 min; for Foamability (mL) after (min) 5: foam volume after 5 min; for Foamability (mL) after (min) 10: foam volume after 10 min; for Foamability 1 min / Foamability 5 min / Foamability 30 min: Table E8; for Foamability 1 min: after 1 min; for Foamability 5 min: after 5 min; for Foamability 30 min: after 30 min
Procedure: Foaming power was also tested at room temperature with 5 mL of 0.4% aq. surfactant (20 mg) solution in a 50 mL measuring cylinder. After performing the Ultra-Turrax (a registered trademark for a high-performance dispersing instrument) for 20 seconds (8000 rpm), the initial height of the foam was measured for foam height. (volume in mL). Every time step of, 1, 3, 5, 10, 30, 60 minutes was noted. In addition, after 24 hours the stability was checked. Particularly, foaming power and stability of the surfactants were performed using an IKA Ultra-Turrax T25 with an 18 G dispersing element. At room temperature, an aqueous solution of 5 mL 0.4% surfactant in a 50 mL measuring cylinder (2.20 cm diameter) was mixed with the Ultra-Turrax for 20 seconds at 8000 rpm. The foam height (volume in mL) was denoted for 0, 1, 3, 5, 10, 30, 60 min and 24 hours. In addition, after 24 hours the stability was checked.

[5] = Table E2, galactaric acid amides
[6] = Table E5, room temperature, pH 7
[7] = Table E4, room temperature, pH 7
[8] = Table E2, room temperature, pH 7
[9] = Table E6, N-oxide compounds, in Salt form

Compound: CCCCCCCCCCNC(=O)[C@H](O)[C@@H](O)[C@@H](O)[C@H](O)C(=O)O [Compound 12]
solubility in water, in words [1]: relatively low | SOLUBILITY (H2O) [1, 5]: <1% | FOAM ([2]; Table E2): ++

Compound: CCCCCCCCCCCCNC(=O)[C@H](O)[C@@H](O)[C@@H](O)[C@H](O)C(=O)O [Compound 13]
solubility in water, in words [1]: relatively low | FOAM ([2]; Table E2): −

Compound: CCCCCCCCNC[C@H](O)[C@@H](O)[C@@H](O)CO [Compound 28, N-octyl-L-arabinamine, reference compound]
FOAM ([2]; Table E4, pH not given): −

Compound: CCCCCCCCCCCCOS(=O)(=O)[O-].[Na+] [SLS, reference compound]
concentration at which the surface tension is reached [3]: 0.02%

Compound: CC(C)CNC(=O)[C@H](O)[C@@H](O)[C@@H](O)CO [Compound 05, 1-(N-isobutyl)-L-arabinonamide]
solubility in water, in words [1]: soluble | SOLUBILITY (H2O) ([1]; Table E1, arabinonamides): Yes | stable surface tension value at maximal concentration (micelle formation) ([3]; maximal concentration in water, means no micelles were formed): do not reach a stable surface tension value | FOAM ([2]; Table E1): −

Compound: CCCCNC(=O)[C@H](O)[C@@H](O)[C@@H](O)[C@H](O)C(=O)O [Compound 09]
solubility in H2O [1]: 6% | SOLUBILITY (H2O) [1, 5]: >6% | SURFACE TENSION [3, 8]: 50.78 mN/m | FOAM ([2]; Table E2): −

Compound: CCCCCCCCCCCCNC[C@H](O)[C@@H](O)[C@@H](O)[C@H](O)C(=O)O [Compound 34, N-dodecyl-D-galacturonic acid amine, reference compound]
SOLUBILITY (H2O) ([1]; Table E5): 0.3% | Solubility [1]: 0.3% | CMC (%) ([3]; Table E5): 0.1% | SURFACE TENSION [3, 6]: 30.7 mN/m | FOAM ([2]; Table E5, pH not given): −

Compound: CCCCNC[C@H](O)[C@@H](O)[C@@H](O)CO [Compound 26, N-butyl-L-arabinamine, reference compound]
SOLUBILITY (H2O) ([1]; Table E4): 6.67% | CMC (%) ([3]; Table E4): 2% | SURFACE TENSION [3, 7]: 45.8 mN/m | FOAM ([2]; Table E4, pH not given): −

Compound: CCCCCCCCNC[C@H](O)[C@@H](O)[C@@H](O)[C@H](O)C(=O)O [Compound 33, N-octyl-D-galacturonic acid amine, reference compound]
solubility in H2O [1]: 1% | SOLUBILITY (H2O) ([1]; Table E5): 1% | Solubility [1]: 1% | CMC (%) ([3]; Table E5): 1% | SURFACE TENSION [3, 6]: 45.1 mN/m | FOAM ([2]; Table E5, pH not given): −

Compound: CCCCCCCC(C)NC[C@H](O)[C@@H](O)[C@@H](O)[C@H](O)C(=O)O (stereo partly drawn) [Compound 35, N-(1-methyloctyl)-D-galacturonic acid amine]
SOLUBILITY (H2O) ([1]; Table E5): 0.9% | FOAM ([2]; Table E5, pH not given): −

Compound: O=C(O)CCCCCCCCCCNC[C@H](O)[C@@H](O)[C@@H](O)CO [Compound 29]
SOLUBILITY (H2O) ([1]; Table E4): 1% | CMC (%) ([3]; Table E4): 1% | SURFACE TENSION [3, 7]: 56.1 mN/m | FOAM ([2]; Table E4, pH not given): −

Compound: CCCCCCCCCCNC[C@H](O)[C@@H](O)[C@@H](O)[C@H](O)C(=O)O [Compound 33b, N-decyl-D-galacturonic acid amine]
Solubility [1]: 0.55%

Results, then the compound that gave them:

SOLUBILITY (H2O) ([1]; Table E5): 40% | Solubility [1]: 40% | CMC (%) ([3]; Table E5): 2% | SURFACE TENSION [3, 6]: 60.6 mN/m | Surface tension (nM/m) ([3]; Table E5.2): 42.1 mN/m | Foamability (mL) after (min) 1 [4]: 0.2 mL | Foamability (mL) after (min) 5 [4]: 0 mL | Foamability (mL) after (min) 10 [4]: 0 mL | FOAM ([2]; Table E5, PH > 7): ++
Compound: CCCCCCN(C)C[C@H](O)[C@@H](O)[C@@H](O)[C@H](O)C(=O)O [Compound 30, N-methyl-N-hexyl-D-galacturonic acid amine]

SOLUBILITY (H2O) ([1]; Table E4): 0.75% | Solubility [1]: 0.75% | CMC (%) ([3]; Table E4): 0.5% | SURFACE TENSION [3, 7]: 30.3 mN/m | FOAM ([2]; Table E4, pH not given): −
Compound: CCCCCCNC[C@H](O)[C@@H](O)[C@@H](O)CO [Compound 27, N-hexyl-L-arabinamine, reference compound]

solubility in H2O [1]: 30% | SOLUBILITY (H2O) ([1]; Table E4): 30% | Solubility [1]: 30% | CMC (%) ([3]; Table E4): 2% | SURFACE TENSION [3, 7]: 31.4 mN/m | CMC (%) ([3]; Table E5.2): 2% | Surface tension (nM/m) ([3]; Table E5.2): 31.4 mN/m | Foamability (mL) after (min) 1 [4]: 2 mL | Foamability (mL) after (min) 5 [4]: 0.2 mL | Foamability (mL) after (min) 10 [4]: 0 mL | FOAM ([2]; Table E4, pH > 7): +
Compound: CCCCCCN(C)C[C@H](O)[C@@H](O)[C@@H](O)CO [Compound 23, N-methyl-N-hexyl-L-arabinamine]

solubility in H2O [1]: 2.5% | SOLUBILITY (H2O) [1, 5]: ~2.5% | SURFACE TENSION [3, 8]: 49.43 mN/m | FOAM ([2]; Table E2): −
Compound: CCCCCCNC(=O)[C@H](O)[C@@H](O)[C@@H](O)[C@H](O)C(=O)O [Compound 10]

SOLUBILITY (H2O) [1, 9]: 11% | Solubility (%) [1]: 11% | CMC (%) ([3]; Table E6, in Salt form): 0.55% | SURFACE TENSION ([3]; Table E6, in Salt form): 27.734 mN/m | CMC (%) ([3]; Table E8): 0.55% | Surface tension (nM/m) ([3]; Table E8): 27.73 mN/m | Foamability 1 min [4]: 2 mL | Foamability 5 min [4]: 2 mL | Foamability 30 min [4]: 0.5 mL | FOAM ([2]; Table E6, in Salt form): ++
Compound: CCCCCCCC[N+](C)([O-])C[C@H](O)[C@@H](O)[C@@H](O)CO (stereo partly drawn) [Compound 39, N-methyloctyl-L-arabinonamine oxide]

foaming behaviour / foam creation, in words [2]: does not create foam
Compound: 1-(N-(decanoic acid))-L-arabinonamide [Compound 06]

solubility in H2O [1]: 1% | SOLUBILITY (H2O) ([1]; Table E5): 1% | Solubility [1]: 1% | SURFACE TENSION [3]: 33.9 mN/m | CMC (%) ([3]; Table E5): 0.1% | SURFACE TENSION [3, 6]: 33.9 mN/m | CMC (%) ([3]; Table E5.2): 0.1% | Surface tension (nM/m) ([3]; Table E5.2): 33.9 mN/m | critical micelle concentration (CMC) ([3]; running text b302): 0.01% | Foamability (mL) after (min) 1 [4]: 4.5 mL | Foamability (mL) after (min) 5 [4]: 5 mL | Foamability (mL) after (min) 10 [4]: 3 mL | FOAM ([2]; Table E5, pH not given): +++ | stability in foam ([2]; whole pH range): enormous stability
Compound: CCCCCCCCCCCCN(C)C[C@H](O)[C@@H](O)[C@@H](O)[C@H](O)C(=O)O [Compound 32, N-methyl-N-dodecyl-D-galacturonic acid amine]

SOLUBILITY (H2O) [1, 9]: 7% | Solubility (%) [1]: 7% | CMC (%) ([3]; Table E6, in Salt form): 0.058% | SURFACE TENSION ([3]; Table E6, in Salt form): 25.551 mN/m | CMC (%) ([3]; Table E8): 0.058% | Surface tension (nM/m) ([3]; Table E8): 25.55 mN/m | Foamability 1 min [4]: 5 mL | Foamability 5 min [4]: 4 mL | Foamability 30 min [4]: 4 mL | FOAM ([2]; Table E6, in Salt form): +++
Compound: CCCCCCCCCCCC[N+](C)([O-])C[C@H](O)[C@@H](O)[C@@H](O)[C@H](O)C(=O)O (stereo partly drawn) [Compound 43, N-methyl-N-dodecyl-D-galacturonic acid amine oxide]

solubility in H2O [1]: 0%
Compound: CCCCCCCCCCCCN(C)C[C@H](O)[C@@H](O)[C@H](O)[C@H](O)CO [Compound 50, 1-(N-methyl-N-dodecyl)-D-glucosamine]

solubility in H2O [1]: 2% | SOLUBILITY (H2O) [1, 5]: ~2.0% | SURFACE TENSION [3]: 26 mN/m | concentration at which the surface tension is reached [3]: 0.29% | CMC (%) ([3]; Table E2): 0.17% | SURFACE TENSION [3, 8]: 26.0 mN/m | foam stability compared with SLES [2]: quite similar | foaming behaviour / foam creation, in words [2]: Foam appears | FOAM ([2]; Table E2): ++
Compound: CCCCCCCCNC(=O)[C@H](O)[C@@H](O)[C@@H](O)[C@H](O)C(=O)O [Compound 11]

Solubility [1]: 0.1% | CMC (%) ([3]; Table E5.2): 0.2% | Surface tension (nM/m) ([3]; Table E5.2): 33.7 mN/m | Foamability (mL) after (min) 1 [4]: 3 mL | Foamability (mL) after (min) 5 [4]: 3 mL | Foamability (mL) after (min) 10 [4]: 2 mL
Compound: CCCCCCCCCCN(C)C[C@@H](O)[C@@H](O)[C@H](O)CO [Compound 24b, N-methyl-N-decyl-L-arabinamine]

Solubility [1]: 2% | CMC (%) ([3]; Table E5.2): 0.06% | Surface tension (nM/m) ([3]; Table E5.2): 32.85 mN/m | Foamability (mL) after (min) 1 [4]: 6 mL | Foamability (mL) after (min) 5 [4]: 6 mL | Foamability (mL) after (min) 10 [4]: 5 mL
Compound: CCCCCCCCCCN(C)C[C@H](O)[C@@H](O)[C@@H](O)[C@H](O)C(=O)O [Compound 25b, N-methyldecyl-D-galactaric acid amine]
